# Values of other authors in patent US20130317107A1, “Platelet-Based Methods to Detect and Monitor Treatment Benefits in Mucosal and Nervous Systems Diseases” (priority 2012, published 2013).
# Tests used:
# [1] = tested on: collagen-stimulated platelets
# [2] = relative to cysteine
# [3] = relative to the stable cysteine disulfide
# [4] = tested on: interluekin-1 beta (IL-1β)-induced eotaxin and monocyte chemotactic protein-1 (MCP-1) expression; settings: by inhibiting activation of p38 MAP kinase
# [5] = tested on: dogs; settings: administered intravenously in dogs
# [6] = tested on: p38 MAP kinase; settings: human bronchial epithelial cells
# [7] = tested on: human bronchial epithelial cells
SMILES,CD40L release [1],stability compared with cysteine [2],solubility compared with cystine [3],IL-1β-induced eotaxin and MCP-1 expression and production [4],protection against pulmonary oxygen toxicity and ischemic and reperfusion damage [5],DEP-induced p38 MAP kinase activity [6],DEP-induced IL-8 and RANTES production [7]
CC(=O)Oc1ccccc1C(=O)O [Aspirin],only partially inhibit,,,,,,
CC(=O)N[C@@H](CS)C(=O)O [N-acetylcysteine],,about 10 times,much more soluble,inhibit,protect,inhibit,inhibited
